Earlier results as cited in US20080319015A1, “Insect Repellent Mixture” (priority 2005, published 2008).

System: biting mosquitoes
Conditions: proportion of about 10% by weight in a formulation

SMILES: CCCCN(CCC(=O)OCC)C(C)=O [ethyl butylacetylaminopropionate, ethyl 3-(N-n-butyl-N-acetylamino)propionate]
- protection times: up to 4 hours
